Results taken from PMC11418636, “Evaluating the potential of non‐immunosuppressive cyclosporin analogs for targeting Toxoplasma gondii cyclophilin: Insights from structural studies” (Protein Science : A Publication of the Protein Society, 2024).
Like-named read-outs stand apart in the source and are kept apart here.

Assays:
[1] = target: T1, TgCyp23 (Toxoplasma gondii, UniProt B9PS61); experiment: Differential scanning calorimetry (DSC) of TgCyp23 with ligands; type: binding; settings: melting temperature of 70 μM TgCyp23 with ligand; TgCyp23 alone 49 ± 1
Protocol: Differential scanning calorimetry (DSC) experiments were conducted using a nano‐DSC (TA instrument) with a cell volume of 300 μL (Favretto et al., [2023]). […] Data were fitted according to a two‐state model using NanoAnalyze software (TA instrument).

[2] = target: CypA; settings: Ptak et al., 2008, read-out: Ki, inhibition of CypA PPIase activity, cited from earlier work
[3] = target: T1, TgCyp23; experiment: Stopped-flow rapid kinetics of binding to TgCyp23; settings: association rate constant, 20°C, pH 7.4, 0.5 μM TgCyp23, ligands 1 to 7 μM
Protocol: Stopped‐flow experiments were performed on an SX‐18 stopped‐flow apparatus (Applied Photophysics, Leatherhead, UK) at 20°C in 50 mM Hepes, 150 mM NaCl, 1 mM DTT (pH 7.4). Fluorescence emission was measured using a 320 nm cutoff filter (λex = 280 nm). The concentration of TgCyp23 after mixing was 0.5 μM, and the concentration of ligands after mixing ranged from 1 to 7 μM. For each trace, data from 4 to 6 injections were averaged and fitted with a single exponential function, excluding data points in the dead‐time of the stopped flow (<2 ms).

[4] = target: T1, TgCyp23; experiment: Isothermal titration calorimetry (ITC) binding to TgCyp23; settings: 20°C, 50 mM HEPES pH 8.0, 100 mM NaCl, error SEM of triplicate
Protocol: Isothermal titration calorimetry (ITC) experiments were performed on a PEAQ‐ITC instrument from MicroCal (Northampton, MA) as previously described (Bombardi et al., [2022]; Conter et al., [2021]; Favretto et al., [2023]). Stock solutions of dhCsA, NIM811, and Alisporivir were prepared in 100% EtOH and successively diluted in a buffer of 50 mM HEPES, pH 8.0, 100 mM NaCl at a final concentration of 8 μM. […] The analog solutions were titrated with 2 μL (total 19 injections) of a 66 μM TgCyp23 solution supplemented with 0.1% EtOH. All the experiments were executed at an operating temperature of 20°C and a time gap of 150 s between each injection. Protein and ligand samples were filtered and degassed thoroughly before the experiments. Reference experiments were performed in the absence of a ligand or a protein, and the heat of dilution was subtracted from each experiment. Each titration set was repeated as a triplicate and the error was estimated as the SEM. The data were analyzed using the software MicroCal Origin, and the apparent dissociation constants Kd, the enthalpy changes (ΔH), and entropy changes (ΔS) were obtained.

[5] = target: T1, TgCyp23; experiment: Circular dichroism (CD) thermal denaturation of TgCyp23 with ligands; type: binding; settings: melting temperature of TgCyp23 with saturating ligand, 224 nm; TgCyp23 alone 52 ± 1
Protocol: Circular dichroism (CD) assays were conducted on a Jasco J‐1500 spectropolarimeter equipped with a Peltier temperature controller following the protocol described in (Bombardi et al., [2020]; Favretto et al., [2023]; Trande et al., [2019]; ). Briefly, denaturation profiles in the presence of saturating concentrations of ligands were obtained by monitoring the loss of secondary structure of TgCyp23 at 224 nm in the temperature range of 15–100°C, with a scan rate of 1.5°C/min. The protein concentration was 0.2 mg/mL, and the buffer used was 50 mM HEPES at pH 8.0 with 100 mM NaCl.

[6] = target: T1, TgCyp23; experiment: PPIase inhibition, protease-coupled assay with AAPF peptide; type: biochemical; settings: PPIase activity, TgCyp23 7 nM, ligand 0 to 30 nM, 10 min on ice; error SEM of triplicate
Protocol: PPIase activity was determined using the synthetic peptide N‐succinyl‐Ala‐Ala‐Pro‐Phe‐p‐nitroanilide (AAPF) based on the protease‐coupled assay as described in (Favretto et al., [2023]; Kofron et al., [1991]). In inhibition assays, TgCyp23 (7 nM) was incubated for 10 min on ice in the presence of increasing concentrations of the three analogs, ranging from 0 to 30 nM, before the addition of the AAPF peptide. In all experiments, the slope of the catalyzed reaction was corrected for spontaneous thermal cis–trans isomerization in the presence of chymotrypsin alone.
The residual enzymatic activity was estimated from the initial velocities of each catalyzed reaction and expressed as a percentage (%) of the original enzymatic activity (Astegno et al., [2017]). Residual enzymatic activities were plotted against ligand concentrations, and the obtained curve was analyzed to determine the IC50 value for each tested ligand. The experiments were repeated in triplicate, and the error was estimated as the standard error of the mean (SEM).

T1 sequence (B9PS61 entry or part of it): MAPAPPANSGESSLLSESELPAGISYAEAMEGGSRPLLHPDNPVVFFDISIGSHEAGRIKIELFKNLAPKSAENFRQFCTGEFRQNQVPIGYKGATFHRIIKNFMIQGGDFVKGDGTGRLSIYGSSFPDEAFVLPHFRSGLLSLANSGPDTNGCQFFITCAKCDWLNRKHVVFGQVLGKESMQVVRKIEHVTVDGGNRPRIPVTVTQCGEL

SMILES	Tm (DSC) [1] [°C]	Ki ([2]; ref Schiene-Fischer et al., 2022) [nM]	kon [3] [M⁻¹ s⁻¹]	Kd [4] [nM]	Tm (CD) [5] [°C]	IC50 [6] [nM]	Ki ([2]; ref Coelmont et al., 2010, de Wilde et al., 2013, Gallay & Lin, 2013) [nM]
C/C=C/C[C@@H](C)[C@@H](O)[C@H]1C(=O)N[C@@H](CC)C(=O)N(C)CC(=O)N(C)[C@@H]([C@@H](C)CC)C(=O)N[C@@H](C(C)C)C(=O)N(C)[C@@H](CC(C)C)C(=O)N[C@@H](C)C(=O)N[C@H](C)C(=O)N(C)[C@@H](CC(C)C)C(=O)N(C)[C@@H](CC(C)C)C(=O)N(C)[C@@H](C(C)C)C(=O)N1C [NIM811, MeIle-4-Cyclosporin]	56 ± 1	2.1	2.77e+06 ± 150000	43 ± 10	58 ± 1	0.85 ± 0.03	
CCCC[C@@H](C)[C@@H](O)[C@H]1C(=O)N[C@@H](CC)C(=O)N(C)CC(=O)N(C)[C@@H](CC(C)C)C(=O)N[C@@H](C(C)C)C(=O)N(C)[C@@H](CC(C)C)C(=O)N[C@@H](C)C(=O)N[C@H](C)C(=O)N(C)[C@@H](CC(C)C)C(=O)N(C)[C@@H](CC(C)C)C(=O)N(C)[C@@H](C(C)C)C(=O)N1C [dhCsA, Dihydrocyclosporin A]	53 ± 1		1.85e+06 ± 110000	200 ± 92	57 ± 1	1.2 ± 0.2	
C/C=C/C[C@@H](C)[C@@H](O)[C@H]1C(=O)N[C@@H](CC)C(=O)N(C)[C@H](C)C(=O)N(CC)[C@@H](C(C)C)C(=O)N[C@@H](C(C)C)C(=O)N(C)[C@@H](CC(C)C)C(=O)N[C@@H](C)C(=O)N[C@H](C)C(=O)N(C)[C@@H](CC(C)C)C(=O)N(C)[C@@H](CC(C)C)C(=O)N(C)[C@@H](C(C)C)C(=O)N1C [Alisporivir, MeAla-3-EtVal-4-Cyclosporin]	55 ± 1		3.97e+06 ± 210000	15 ± 3	59 ± 1	0.77 ± 0.01	0.34
